# Assay results from patent US8344146B2, “Inhibitor of DD-peptidase and its use as antibiotic or anticancer drug” (Narodowy Instytut Zdrowia Publicznego-Panstwowy Zaklad …, priority 2007, dated 2013).
# Tests used:
# DD-peptidase R39 [1] = molecular target: T1, DD-peptidase R39 (Actinomadura sp., UniProt P39045); test: DD-peptidase R39 activity inhibition (ID50); type: biochemical; conditions: DD-peptidase R39, purified inhibitor; read-out: ID50 (M), molar concentration of inhibitor which inhibits 50% of enzyme activity
# T1 construct: extracellular DD-peptidase R39 produced by Actinomadura sp; R39; gift: Prof; Jean-Maria Ghuysen; host or cells: Actinomadura sp; R39 (natural producer, secreted)
# T1 sequence (P39045 50-538): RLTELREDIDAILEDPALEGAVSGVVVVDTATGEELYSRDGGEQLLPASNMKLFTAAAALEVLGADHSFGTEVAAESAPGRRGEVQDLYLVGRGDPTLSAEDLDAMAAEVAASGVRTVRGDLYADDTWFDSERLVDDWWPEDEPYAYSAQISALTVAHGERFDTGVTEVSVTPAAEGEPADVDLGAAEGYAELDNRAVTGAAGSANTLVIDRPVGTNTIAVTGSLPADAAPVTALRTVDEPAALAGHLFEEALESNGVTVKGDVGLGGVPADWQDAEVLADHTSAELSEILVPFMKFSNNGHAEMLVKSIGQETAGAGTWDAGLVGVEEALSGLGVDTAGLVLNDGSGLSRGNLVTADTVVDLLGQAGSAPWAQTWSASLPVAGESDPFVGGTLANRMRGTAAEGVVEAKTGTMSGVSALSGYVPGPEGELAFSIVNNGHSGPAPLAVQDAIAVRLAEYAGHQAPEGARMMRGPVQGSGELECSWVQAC
# DD-peptidase R61 [2] = molecular target: T2, DD-peptidase R61 (Streptomyces sp., UniProt P15555); test: DD-peptidase R61 activity inhibition (ID50); type: biochemical; conditions: DD-peptidase R61, purified inhibitor; read-out: ID50 (M), molar concentration of inhibitor which inhibits 50% of enzyme activity
# T2 construct: DD-peptidase R61 produced by Streptomyces sp; R61; gift: Prof; Jean-Maria Ghuysen; host or cells: Streptomyces sp; R61 (natural producer)
# T2 sequence (P15555 32-380): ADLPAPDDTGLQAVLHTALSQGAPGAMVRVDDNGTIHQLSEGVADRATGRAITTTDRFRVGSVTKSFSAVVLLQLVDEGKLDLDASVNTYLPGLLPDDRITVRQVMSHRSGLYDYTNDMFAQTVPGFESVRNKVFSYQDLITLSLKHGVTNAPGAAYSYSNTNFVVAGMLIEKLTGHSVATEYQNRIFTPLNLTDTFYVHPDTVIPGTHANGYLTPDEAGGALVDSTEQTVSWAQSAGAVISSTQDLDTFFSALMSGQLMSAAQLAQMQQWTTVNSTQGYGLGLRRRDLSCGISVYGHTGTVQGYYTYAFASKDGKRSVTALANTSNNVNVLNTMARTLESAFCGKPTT
# DD-peptidase R39 [3] = molecular target: T1, DD-peptidase R39; test: Life of the inhibitor-enzyme complex, R39; type: biochemical, Actinomadura sp. R39
# Experimental: (§1) The Life of the Inhibitor-Enzyme Complex was Also Determined.
# (§2) The incubation was performed from several to several dozen hours of each enzyme and inhibitor (as described above). Next, the reaction mixture was added, and determinations were performed.
# DD-peptidase R61 [4] = molecular target: T2, DD-peptidase R61; test: Life of the inhibitor-enzyme complex, R61; type: biochemical, Streptomyces sp. R61
# Experimental: as §1, §2
# [5] = tested on: class A β-lactamase (penicillinase, Penase); test: β-lactamase inhibitor activity, nitrocefin method; type: biochemical; conditions: 482 nm, 30 min preincubation at 37° C.
# Experimental: Determination of β-Lactamase Inhibitor Activity Using the Nitrocefin Method (O'Callaghan et al. 1972)^2.
# reagents used in the assay: 0.1 mM nitrocefin solution containing 0.5 mg nitrocefin (Glaxo), 0.5 cm^3 DMSO (Fluka), 9.5 cm^3 0.1 M PBS pH 7.0; class A β-lactamase (penicillinase, Penase, 5×10^6 IU/ml, Bacto).
# 20 mm^3 of the examined inhibitor in 0.1 M PBS pH 7.0 were supplemented with 10 mm^3 β-lactamase, incubated for 30 min. at 37° C. Next, 30 mm^3 of 0.1 mM nitrocefin solution were added, and 430 mm^3 of 0.1M PBS pH 7.0. The samples were incubated for 10 min. at 37° C. and evaluated spectrophotometrically at 482 nm. The molar extinction coefficient was 15000 M^−1·cm^−1.
# β-lactamase = test: Inhibitor stability in a β-lactamase environment; type: biochemical
# Experimental: Determination of Inhibitor Stability in a β-Lactamase Environment.
# A method of evaluation inhibitor stability was designed using a combination of the above two methods. An initial incubation of the inhibitor with β-lactamase was performed, and then the reagents for determining DD-peptidase activity inhibition were added. The absorbance of the experimental sample was 0.05, whereas for the control sample (DD-peptidase) it was 0.35. […] It is not hydrolysed by β-lactamase.
# [6] = tested on: Acinetobacter baumanii ATCC 19606; test: MIC, serial dilutions on solid media; type: cell-based; conditions: Acinetobacter baumannii, ATCC19606, MH II agar, 16 hours at 35° C., inhibitor fractions purified on ion-exchange column
# Experimental: (§3) The antibacterial activity of the compound in question was determined using serial dilutions on solid media (MIC value determination) and using the spot-diffusion protocol. […] Standard bacterial strains used in the analysis:
# (§4) A Petri dish was loaded with 0.25 ml of the sample in water and topped with MH II agar medium (Muller Hinton II) to 5 ml. The antibiotic concentration was 0.2 mg/ml medium. Additionally, a control without the antibiotic was made containing 5 ml of MH II. Using a densitometer, bacterial suspensions were made in NaCl solution containing 0.5 McF (10^8 CFU/ml), and subsequently dilutions thereof were made.
# (§5) The following dilution series was made: • 10^4 CFU/ml NaCl for strains 6, 7, 8, 9 • 10^5 CFU/ml Nan for strains 1, 2, 3, 4, 5, 10, 11
# (§6) After the medium set, 2 μl of bacterial suspension of each strain was inoculated onto the medium yielding 10^2 CFU/ml for strains 6, 7, 8, 9 and 10^3 CFU/ml for strains 1, 2, 3, 4, 5, 10, 11. Each suspension was loaded onto each plate. the incubation was performed for 16 hours at 35° C.
# [7] = tested on: Bordetella bronchiseptica ATCC 4617; test: MIC, serial dilutions on solid media; type: cell-based; conditions: ATCC4617, MH II agar, 16 hours at 35° C., inhibitor fractions purified on ion-exchange column
# Experimental: as §3, §4, §5, §6
# [8] = tested on: Burkholderia cepacia ATCC 25416; test: MIC, serial dilutions on solid media; type: cell-based; conditions: ATCC25416, MH II agar, 16 hours at 35° C., inhibitor fractions purified on ion-exchange column
# Experimental: as §3, §4, §5, §6
# [9] = tested on: Enterococcus faecalis ATCC 29219; test: MIC, serial dilutions on solid media; type: cell-based; conditions: ATCC29219, MH II agar, 16 hours at 35° C., inhibitor fractions purified on ion-exchange column
# Experimental: as §3, §4, §5, §6
# [10] = tested on: Escherichia coli ATCC 25922; test: MIC, serial dilutions on solid media; type: cell-based; conditions: ATCC25922, MH II agar, 16 hours at 35° C., inhibitor fractions purified on ion-exchange column
# Experimental: as §3, §4, §5, §6
# [11] = tested on: Escherichia coli NCTC 8196; test: MIC, serial dilutions on solid media; type: cell-based; conditions: NCTC8196, MH II agar, 16 hours at 35° C., inhibitor fractions purified on ion-exchange column
# Experimental: as §3, §4, §5, §6
# [12] = tested on: Klebsiella pneumoniae ATCC 13883; test: MIC, serial dilutions on solid media; type: cell-based; conditions: ATCC13883, MH II agar, 16 hours at 35° C., inhibitor fractions purified on ion-exchange column
# Experimental: as §3, §4, §5, §6
# [13] = tested on: Proteus vulgaris NCTC 4635; test: MIC, serial dilutions on solid media; type: cell-based; conditions: NCTC4635, MH II agar, 16 hours at 35° C., inhibitor fractions purified on ion-exchange column
# Experimental: as §3, §4, §5, §6
# [14] = tested on: Staphylococcus aureus ATCC 6538P; test: MIC, serial dilutions on solid media; type: cell-based; conditions: ATCC6538P, MH II agar, 16 hours at 35° C., inhibitor fractions purified on ion-exchange column
# Experimental: as §3, §4, §5, §6
# [15] = tested on: Staphylococcus aureus NCTC 4163; test: MIC, serial dilutions on solid media; type: cell-based; conditions: NCTC4163, MH II agar, 16 hours at 35° C., inhibitor fractions purified on ion-exchange column
# Experimental: as §3, §4, §5, §6
# [16] = tested on: Stenotrophomonas maltophilia ATCC 13637; test: MIC, serial dilutions on solid media; type: cell-based; conditions: ATCC13637, MH II agar, 16 hours at 35° C., inhibitor fractions purified on ion-exchange column
# Experimental: as §3, §4, §5, §6
# [17] = tested on: Bordetella bronchiseptica ATCC 4617; test: Spot-diffusion method, growth inhibition zones; type: cell-based; conditions: ATCC4617, 0.4 mg inhibitor per disc
# Experimental: (§7) Inhibitor activity was also determined using the spot-diffusion method.
# (§8) The analysis was performed using: Proteus vulgaris NCTC 4635, Bordetella bronchiseptica ATCC 4617, Stenotrophomonas maltophilia ATCC 13637. 24 bacterial cultures were used to make suspensions containing 0.2 McF, which was then diluted 100-fold. 0.1 ml of such a mixture was then placed on a dish with Muller-Hinton medium. Discs containing the examined inhibitor fractions were placed and incubated at 35° C. The determinations were carried out at 15 and 18 hours.
# (§9) The following growth inhibition zones were obtained using 0.4 mg inhibitor per disc: […]
# [18] = tested on: Proteus vulgaris NCTC 4635; test: Spot-diffusion method, growth inhibition zones; type: cell-based; conditions: NCTC4635, 0.4 mg inhibitor per disc
# Experimental: as §7, §8, §9
# [19] = tested on: Stenotrophomonas maltophilia ATCC 13637; test: Spot-diffusion method, growth inhibition zones; type: cell-based; conditions: ATCC13637, 0.4 mg inhibitor per disc
# Experimental: as §7, §8, §9
# [20] = tested on: Candida albicans ATCC 10231; test: Antifungal activity analysis, disc on Sabourand medium; type: cell-based; conditions: discs with 1 mg, 35° C. for 24 h; inhibitor fractions following stage 2 of purification
# Experimental: A Petri dish with solid Sabourand medium with 4% glucose was inoculated with a Candida albicans ATCC 10231 suspension, at 0.02 McF density. Tissue discs soaked in the inhibitor solution were then placed on the medium (1 mg). The incubation was performed at 35° C. for 24 h.
# [21] = Inhibitor characteristics: solubility; type: physicochemical
# Source text: • 1.) Solid yellow in colour. • 2.) Solubility. The inhibitor is soluble in PBS pH 7.2-8.0; soluble in an aqueous environment with low levels of K^+, Na^+. It also dissolves in methanol, DMSO, but degrades in these solvents.
smiles,measurement,setting,value
"O=C1C=C2CC(C(=O)O)NC=C2C=C1O (stereo not drawn) [inhibitor, 7-hydroxy-6-oxo-2,3,4,6-tetrahydroisochinolin-3-carboxylic acid]",IC50,DD-peptidase R39 [1],0.00045 M
same,IC50,DD-peptidase R61 [2],0.000675 M
same,life of the inhibitor-DD-peptidase R 39 complex,DD-peptidase R39 [3],3.5 h
same,life of the inhibitor-DD-peptidase R 61 complex,DD-peptidase R61 [4],about 33 hours
same,inhibition of class A β-lactamase,[5],did not inhibit
same,stability of DD-peptidase inhibitory activity in the presence of class A β-lactamase,β-lactamase; 24 h incubation in β-lactamase at room temperature,completely stable
same,stability in a β-lactamase environment,"β-lactamase; initial incubation with β-lactamase, then DD-peptidase 64-575 II inhibition",stable in a β-lactamase environment
same,MIC,[6],> 200 µg/mL
same,MIC,[7],200 µg/mL
same,MIC,[8],> 200 µg/mL
same,MIC,[9],> 200 µg/mL
same,MIC,[10],> 200 µg/mL
same,MIC,[11],> 200 µg/mL
same,MIC,[12],> 200 µg/mL
same,MIC,[13],200 µg/mL
same,MIC,[14],> 200 µg/mL
same,MIC,[15],> 200 µg/mL
same,MIC,[16],200 µg/mL
same,zone of inhibition at 400 µg/disc,[17]; after 15 h,19 mm
same,zone of inhibition at 400 µg/disc,[17]; after 18 h,19 mm
same,zone of inhibition at 400 µg/disc,[18]; after 15 h,20 mm
same,zone of inhibition at 400 µg/disc,[18]; after 18 h,19 mm
same,zone of inhibition at 400 µg/disc,[19]; after 15 h,16 mm
same,zone of inhibition at 400 µg/disc,[19]; after 18 h,15 mm
same,antifungal activity against Candida albicans ATCC 10231,[20],does not exhibit antifungal activity
same,solubility in PBS pH 7.2-8.0,[21]; PBS pH 7.2-8.0,soluble
same,"solubility in an aqueous environment with low levels of K+, Na+","[21]; aqueous, low levels of K+, Na+",soluble
same,"solubility in ethyl acetate, methylene chloride, chloroform, amyl acetate, acetonitrile","[21]; ethyl acetate, methylene chloride, chloroform, amyl acetate, acetonitrile",not soluble
same,"solubility in methanol, DMSO","[21]; methanol, DMSO",dissolves
same,"stability in methanol, DMSO","[21]; methanol, DMSO",degrades
